Reference: patent publication US8754079B2, “Cycloalkyl containing thienopyrimidines for pharmaceutical compositions” (Boehringer Ingelheim International GmbH, priority 2010, dated 2014)

Target: T1, MNK2 (Homo sapiens, UniProt Q9HBH9)
T1 construct: the open reading frames of human Mnk1 and Mnk2a were amplified from cDNA; made in house; host or cells: E. coli BL21
Assay: Mnk2a in vitro kinase assay (indirect fluorescence polarization)
Format: biochemical
Settings: pre-activated GST-Mnk2a 2.5 nM, 20 μM ATP, 30 μM substrate peptide
Summary of the method: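 Human GST-Mnk2a was expressed in E. coli and activated in vitro with 150 nM pre-activated ERK2 and 50 μM ATP in HEPES pH 7.4/MgCl2 buffer (45 min, 30 °C). Activity on an eIF4E Ser209-derived 12mer peptide was read by competitive fluorescence polarization with a phospho-specific antibody.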

T1 sequence (Q9HBH9 whole entry): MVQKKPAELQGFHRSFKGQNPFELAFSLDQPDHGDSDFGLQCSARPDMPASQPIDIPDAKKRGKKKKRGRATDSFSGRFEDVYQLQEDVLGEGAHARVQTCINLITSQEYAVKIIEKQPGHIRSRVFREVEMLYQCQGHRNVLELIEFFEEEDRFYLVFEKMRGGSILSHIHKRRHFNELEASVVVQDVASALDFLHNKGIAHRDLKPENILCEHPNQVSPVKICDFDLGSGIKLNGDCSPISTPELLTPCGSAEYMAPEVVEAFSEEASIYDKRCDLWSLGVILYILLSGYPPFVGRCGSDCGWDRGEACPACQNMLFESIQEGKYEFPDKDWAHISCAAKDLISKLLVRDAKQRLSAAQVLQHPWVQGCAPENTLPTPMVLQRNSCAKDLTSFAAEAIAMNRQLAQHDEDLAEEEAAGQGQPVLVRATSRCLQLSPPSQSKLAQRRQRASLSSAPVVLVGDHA

Compound	IC50
CO[C@@H]1CCCC[C@H]1Oc1cc(F)ccc1Nc1ncnc2sc(C(N)=O)c(C)c12 [Example 249, 4-[4-Fluoro-2-((1R,2R)-2-methoxy-cyclohexyloxy)-phenylamino]-5-methyl-thieno[2,3-d]pyrimidine-6-carboxylic acid amide]	6 nM
CO[C@H]1CCC[C@@H](Oc2cc(F)ccc2Nc2ncnc3sc(C(=O)NCCO)c(C)c23)C1 (racemic) [Example 101]	21 nM
CCCNC(=O)c1sc2ncnc(Nc3cccnc3O[C@H]3CC[C@H](N)CC3)c2c1C [Example 289, 4-[2-(4-Amino-cyclohexyloxy)-pyridin-3-ylamino]-5-methyl-thieno[2,3-d]pyrimidine-6-carboxylic acid propyl amide]	2 nM
CC(=O)N[C@H]1C[C@H](Oc2cc(F)ccc2Nc2ncnc3sc(C(=O)NC4CCN(C)CC4)c(C)c23)C1 [Example 40]	40 nM
CC(=O)N[C@H]1C[C@H](Oc2cc(F)ccc2Nc2ncnc3sc(C(=O)NCC#CCN(C)C)c(C)c23)C1 [Example 245, 4-[2-(trans-3-Acetylamino-cyclobutoxy)-4-fluoro-phenylamino]-5-methyl-thieno[2,3-d]pyrimidine-6-carboxylic acid (4-dimethylamino-but-2-ynyl)-amide]	39 nM
CO[C@@H]1CCC[C@@H](Oc2ncccc2Nc2ncnc3sc(C(N)=O)c(C)c23)C1 (racemic) [Example 131, Racemic 4-[2-((trans)-3-Methoxy-cyclohexyloxy)-pyridin-3-ylamino]-5-methyl-thieno[2,3-d]pyrimidine-6-carboxylic acid amide]	18 nM
CO[C@H]1CCC[C@@H](Oc2ncccc2Nc2ncnc3sc(C(=O)NCCCN4CCOCC4)c(C)c23)C1 (racemic) [Example 118]	22 nM
Cc1c(C(=O)NCCCN2CCCC2=O)sc2ncnc(Nc3ccc(F)cc3O[C@H]3CC[C@H](O)CC3)c12 [Example 271, 4-[4-Fluoro-2-(trans-4-hydroxy-cyclohexyloxy)-phenylamino]-5-methyl-thieno[2,3-d]pyrimidine-6-carboxylic acid [3-(2-oxo-pyrrolidin-1-yl)-propyl]amide]	12 nM
CO[C@H]1CCC[C@@H](Oc2cc(F)ccc2Nc2ncnc3sc(C(=O)NCCCN4CCOCC4)c(C)c23)C1 (racemic) [Example 97]	24 nM
CC(=O)N[C@H]1CC[C@H](Oc2cc(F)ccc2Nc2ncnc3sc(C(=O)N[C@@H]4C[C@H]4N)c(C)c23)C1 [Example 238]	31 nM
Cc1c(C(=O)NCC#CCN(C)C)sc2ncnc(Nc3ccc(F)cc3O[C@H]3CC[C@H](O)CC3)c12 [Example 165]	8 nM
Cc1c(C(N)=O)sc2ncnc(Nc3ccc(F)cc3OC3CCC(=O)CC3)c12 [Example 21, 4-(4-Fluoro-2-(4-oxocyclohexyloxy)phenylamino)-5-methylthieno[2,3-d]pyrimidine-6-carboxamide]	31 nM
Cc1c(C(N)=O)sc2ncnc(Nc3cccnc3O[C@H]3CC[C@H](N)CC3)c12 [Example 283, 4-[2-(4-Amino-cyclohexyloxy)-pyridin-3-ylamino]-5-methyl-thieno[2,3-d]pyrimidine-6-carboxylic acid amide]	6 nM
Cc1c(C(N)=O)sc2ncnc(Nc3ccc(F)cc3O[C@H]3CC[C@H](NS(C)(=O)=O)CC3)c12 [Example 3, 4-[4-Fluoro-2-(trans-4-methanesulfonylamino-cyclohexyloxy)-phenylamino]-5-methyl-thieno[2,3-d]pyrimidine-6-carboxylic acid amide]	10 nM
Cc1c(C(=O)NC(C)C)sc2ncnc(Nc3cccnc3O[C@H]3CC[C@H](N)CC3)c12 [Example 287]	5 nM
CONC(=O)c1sc2ncnc(Nc3ccc(F)cc3O[C@H]3C[C@H](NC(C)=O)C3)c2c1C [Example 38]	70 nM
Cc1c(C(=O)NCCO)sc2ncnc(Nc3cccnc3O[C@H]3CC[C@H](O)CC3)c12 [Example 266, 4-[2-(trans-4-hydroxy-cyclohexyloxy)-pyridine-3-ylamino]-5-methyl-thieno[2,3-d]pyrimidine-6-carboxylic acid (2-hydroxy-ethyl)-amide]	15 nM
CO[C@@H]1CCC[C@@H](Oc2cc(F)ccc2Nc2ncnc3sc(C(=O)NCc4cnco4)c(C)c23)C1 (racemic) [Example 82]	44 nM
CO[C@@H]1CCC[C@@H](Oc2ncccc2Nc2ncnc3sc(C(=O)NCC#CCN(C)C)c(C)c23)C1 (racemic) [Example 138]	48 nM
CC(=O)N(C)[C@H]1CC[C@H](Oc2cc(F)ccc2Nc2ncnc3sc(C(=O)NCCCN(C)C)c(C)c23)CC1 [Example 8, N-(3-(dimethylamino)propyl)-4-(4-fluoro-2-(trans-4-(N-methylacetamido)cyclohexyloxy)phenylamino)-5-methylthieno[2,3-d]pyrimidine-6-carboxamide]	12 nM
Cc1c(C(=O)NCCCN(C)C)sc2ncnc(Nc3ccc(F)cc3OC3CCC(C)(C)CC3)c12 [Example 32, 4-[2-(4,4-Dimethyl-cyclohexyloxy)-4-fluoro-phenylamino]-5-methyl-thieno[2,3-d]pyrimidine-6-carboxylic acid (3-dimethylamino-propyl)-amide]	36 nM

Compound	IC50
Cc1c(C(=O)NCCCO)sc2ncnc(Nc3ccc(F)cc3O[C@@H]3CCC[C@@H](O)C3)c12 (racemic) [Example 74]	22 nM
Cc1c(C(N)=O)sc2ncnc(Nc3ccc(F)cc3O[C@H]3C[C@@H]4OC(C)(C)O[C@@H]4C3)c12 [Example 213]	74 nM
CC(=O)N[C@H]1C[C@H](Oc2cc(F)ccc2Nc2ncnc3sc(C(=O)N[C@H]4C[C@@H]4N)c(C)c23)C1 [Example 246, 4-[2-(trans-3-Acetylamino-cyclobutoxy)-4-fluoro-phenylamino]-5-methyl-thieno[2,3-d]pyrimidine-6-carboxylic acid (2-amino-cyclopropyl)-amide]	65 nM
COC1CCCC(Oc2cc(F)ccc2Nc2ncnc3sc(C(=O)NCC#N)c(C)c23)C1 (stereo not drawn) [Example 94]	21 nM
Cc1c(C(N)=O)sc2ncnc(Nc3ccc(F)cc3O[C@H]3CC[C@H](N4CCOCC4)CC3)c12 [Example 26, 4-(4-Fluoro-2-(trans-4-morpholinocyclohexyloxy)phenylamino)-5-methylthieno[2,3-d]pyrimidine-6-carboxamide]	82 nM
COC1CCCC(Oc2ncccc2Nc2ncnc3sc(C(=O)NCC4COCCN4)c(C)c23)C1 (mixture of isomers) [Example 141]	89 nM
CO[C@H]1CC[C@H](Oc2cc(F)ccc2Nc2ncnc3sc(C(=O)NCCCN4CCC(O)C4)c(C)c23)CC1 (stereo partly drawn) [Example 201, 4-[4-Fluoro-2-(trans-4-methoxy-cyclohexyloxy)-phenylamino]-5-methyl-thieno[2,3-d]pyrimidine-6-carboxylic acid [3-(3-hydroxy-pyrrolidin-1-yl)-propyl]-amide]	16 nM
Cc1c(C(N)=O)sc2ncnc(Nc3ccc(F)cc3O[C@@H]3CCCC[C@H]3O)c12 [Example 52, 4-[4-Fluoro-2-((1R,2R)-2-hydroxy-cyclohexyloxy)-phenylamino]-5-methyl-thieno[2,3-d]pyrimidine-6-carboxylic acid amide]	30 nM
COC1CCCC(Oc2cc(F)ccc2Nc2ncnc3sc(C(=O)NCC4COCCN4)c(C)c23)C1 (stereo not drawn) [Example 99]	36 nM
CCNC(=O)c1sc2ncnc(Nc3cccnc3O[C@@H]3CCC[C@H](OC)C3)c2c1C (racemic) [Example 130]	24 nM
CC(=O)N[C@H]1CC[C@H](Oc2cc(F)ccc2Nc2ncnc3sc(C(=O)N[C@@H]4C[C@H]4NC(=O)OC(C)(C)C)c(C)c23)C1 [Example 232]	6 nM
Cc1c(C(=O)O)sc2ncnc(Nc3ccc(F)cc3O[C@H]3CCCC[C@H]3O)c12 (single isomer, unassigned) [Example 262, 4-[4-fluoro-2-(cis-2-hydroxy-cyclohexyloxy)-phenylamino]-5-methyl-thieno[2,3-d]pyrimidine-6-carboxylic acid]	23 nM
CO[C@H]1CCC[C@@H](Oc2ncccc2Nc2ncnc3sc(C(=O)NCCN4CCCCC4)c(C)c23)C1 (racemic) [Example 124]	36 nM
COC(=O)c1sc2ncnc(Nc3ccc(F)cc3O[C@H]3CCCC[C@H]3O)c2c1C (single isomer, unassigned) [Example 257, 4-[4-fluoro-2-(cis-2-hydroxy-cyclohexyloxy)-phenylamino]-5-methyl-thieno[2,3-d]pyrimidine-6-carboxylic acid methyl ester]	141 nM
CO[C@H]1CC[C@H](Oc2cc(F)ccc2Nc2ncnc3sc(C(=O)NCC(C)O)c(C)c23)CC1 (stereo partly drawn) [Example 184]	38 nM
Cc1c(C(=O)NCc2cnco2)sc2ncnc(Nc3ccc(F)cc3O[C@@H]3CCC[C@@H](O)C3)c12 (racemic) [Example 62]	17 nM
CO[C@@H]1CCC[C@@H](Oc2ncccc2Nc2ncnc3sc(C(=O)N[C@H]4CC[C@H](O)CC4)c(C)c23)C1 (racemic) [Example 142]	125 nM
COC1CCCC(Oc2cc(F)ccc2Nc2ncnc3sc(C(=O)NCC#CCN)c(C)c23)C1 (stereo not drawn) [Example 80]	31 nM
Cc1c(C(N)=O)sc2ncnc(Nc3ccc(F)cc3OC3CCC4(CC3)OCCO4)c12 [Example 19, 4-(2-(1,4-Dioxaspiro[4.5]decan-8-yloxy)-4-fluorophenylamino)-5-methylthieno[2,3-d]pyrimidine-6-carboxamide]	31 nM
CC(=O)N(C)[C@H]1CC[C@@H](Oc2cc(F)ccc2Nc2ncnc3sc(C(N)=O)c(C)c23)CC1 [Example 10]	2500 nM
Cc1c(C(N)=O)sc2ncnc(Nc3ccc(F)cc3O[C@H]3CCCC[C@@H]3O)c12 [Example 51, 4-[4-Fluoro-2-((1S,2S)-2-hydroxy-cyclohexyloxy)-phenylamino]-5-methyl-thieno[2,3-d]pyrimidine-6-carboxylic acid amide]	13 nM
